# Measured values from the RepoRT retention time repository (doi:10.1021/acs.analchem.1c00972).
# Assay: RP, Waters ACQUITY UPLC BEH C18, 100 × 1 mm, 1.7 µm, 50 °C, 0.3 mL/min, estimated dead time 0.17 min; A: water + 0.1% formic acid + 20 mM ammonium formate; B: methanol + 0.1% formic acid + 20 mM ammonium formate; gradient (min/%B) 0/0 15/100 21/100 22/0 30/0
# Details: stereoisomer not certain
row,SMILES,LC retention time
1,CC(CCC(=O)O)C1CCC2C3C(O)CC4CC(O)CCC4(C)C3CCC12C (stereo unspecified) [Chenodeoxycholic acid],17.1 min
2,Cc1cc(Cl)ccc1N=CN(C)C [Chlordimeform],8.37 min
3,O=C(O)Cc1c(Cl)ccc(Cl)c1Cl [Chlorfenac],2.02 min
4,CC(C)OC(=O)Nc1cccc(Cl)c1 [Chlorpropham],14.4 min
5,COP(=O)(OC)Oc1nc(Cl)c(Cl)cc1Cl [Chlorpyrifos-methyl-oxon],13.7 min
6,CCOP(=O)(OCC)Oc1nc(Cl)c(Cl)cc1Cl [Chlorpyrifos-oxon],15.2 min
7,CCOP(=S)(OCC)Oc1nc(Cl)c(Cl)cc1Cl [Chlorpyriphos-ethyl],17.1 min
8,NS(=O)(=O)c1cc2c(cc1Cl)NC=NS2(=O)=O [Chlorthiazide],4.7 min
9,CC(C)CCCC(C)C1CCC2C3CC=C4CC(O)CCC4(C)C3CCC12C (stereo unspecified) [Cholesterol],21.4 min
10,CC(CCC(=O)O)C1CCC2C3C(O)CC4CC(O)CCC4(C)C3CC(O)C12C (stereo unspecified) [Cholic acid],16.1 min
11,Cc1cc(C2CCCCC2)n(O)c(=O)c1 [Ciclopirox],14.9 min
12,CC1OC(OC2CCC3(C=O)C4CCC5(C)C(C6=CC(=O)OC6)CCC5(O)C4CCC3(O)C2)C(O)C(O)C1O (stereo unspecified) [Convallatoxin],11.2 min
13,CCNc1nc(Cl)nc(NC(C)(C)C#N)n1 [Cyanazin],11.3 min
14,NC1CCCCC1 [Cyclohexylamine],4.9 min
15,O=P1(N(CCCl)CCCl)NCCCO1 (stereo unspecified) [Cyclophosphamide],10.7 min
16,CCNC(=O)NC(=O)C(C#N)=NOC [Cymoxanil],9.68 min
17,CCCCCCCCn1sc(Cl)c(Cl)c1=O [DCOIT],17 min
18,O=C(O)C1OC(Oc2ccc3c(=O)c(-c4ccc(O)cc4)coc3c2)C(O)C(O)C1O (stereo unspecified) [Daidzein_glucuronide],8.4 min
19,CCCCCCCCCC(=O)OC(CC(=O)[O-])C[N+](C)(C)C [Decanoyl-L-Carnitine],14.5 min
20,CCS(=O)(=O)CCSP(=O)(OC)OC [Demeton-S-methyl-sulfone],7.78 min
21,CCSCCSP(=O)(OC)OC [Demeton-S-methyl],11.8 min
22,CC(CCC(=O)O)C1CCC2C3CCC4CC(O)CCC4(C)C3CC(O)C12C (stereo unspecified) [Deoxycholic acid],17.1 min
23,CCNC(=O)C(C)Oc1cccc2ccccc12 (stereo unspecified) [Desethyl-napropamide],14 min

row,SMILES,LC retention time
1,CCOP(=O)(OCC)Oc1cc(C)nc(C(C)C)n1 [Diazoxon / Diazinon-oxon],15.7 min
2,CCCCOc1cc(C(=O)NCCN(CC)CC)c2ccccc2n1 [Dibucaine],13 min
3,Cc1cc(C(C)(C)C)c(O)c(C(C)(C)C)c1 [Dibutylhydroxytoluene],17 min
4,CC(Oc1ccc(Oc2ccc(Cl)cc2Cl)cc1)C(=O)O (stereo unspecified) [Diclofop],14.3 min
5,O=C(NC1CCCCC1)NC1CCCCC1 [Dicyclohexylurea],14 min
6,CCCCCCCCCCCCOC(=O)c1ccccc1C(=O)OCCCCCCCCCCCC [Didodecylphthalate],21.7 min
7,CC12CCC3=C4CCC(=O)C=C4CCC3C1CCC2(O)CC#N (stereo unspecified) [Dienogest],12.6 min
8,CCOc1ccc(NC(=O)OC(C)C)cc1OCC [Diethofencarb],7.48 min
9,CCOP(=O)(O)OCC [Diethyl phopshate],16.3 min
10,COCCOCCO [Diethyleneglycolmonomethylether],5.03 min
11,O=C(O)c1cccnc1Oc1cccc(C(F)(F)F)c1 [Diflufenican-metabolite],13.2 min
12,COCCOCCOC [Diglyme],7.31 min
13,CCCCCCOC(=O)c1ccccc1C(=O)OCCCCCC [Dihexylphthalate],18.2 min
14,COc1ccc2c3c1OC1C(O)CCC4C(C2)N(C)CCC341 (stereo unspecified) [Dihydrocodein],6.74 min
15,CN(C)C(=O)Nc1ccc(-n2nc(C(C)(C)C)oc2=O)c(Cl)c1 [Dimefuron],13.6 min
16,COCC(C)N(C(=O)CS(=O)(=O)O)c1c(C)csc1C (stereo unspecified) [Dimethenamid-M 27 (ESA)],10.8 min
17,Cc1csc(C)c1NC(=O)CCl [Dimethenamid-N-dealkylation],10.2 min
18,COC(=O)c1ccccc1C(=O)OC [Dimethylphthalat DMP],11.2 min
19,CNC(=O)Oc1ccccc1C1OCCO1 [Dioxacarb],15.1 min
20,c1ccc(Oc2ccccc2)cc1 [Diphenylether],13.5 min
21,O=[P+](c1ccccc1)c1ccccc1 [Diphenylphosphine oxide],11.8 min
22,Cc1ccc(OP(=O)(Oc2ccccc2)Oc2ccccc2)cc1 [Diphenyltolyl phosphate],16.3 min
23,CCOP(=S)(OCC)SCCS(=O)CC (stereo unspecified) [Disulfoton-sulfoxide],12.7 min

row,SMILES,LC retention time
1,CCOP(=S)(OCC)SCCSCC [Disulfoton],16 min
2,Cc1ccc(OP(=O)(Oc2ccccc2)Oc2ccc(C)cc2)cc1 [Ditolyl phenyl phosphate],14 min
3,CCCCCCCCCCCOC(=O)c1ccccc1C(=O)OCCCCCCCCCCC [Diundecylphthalate],21 min
4,O=C1CCCCCCCCCCCN1 [Dodecane-12-lactam],14 min
5,CC1CN(C2CCCCCCCCCCC2)CC(C)O1 (stereo unspecified) [Dodemorph],13.5 min
6,CC=C(C)C(=O)OC1CC[N+]2([O-])CC=C(COC(=O)C(O)(C(C)O)C(C)(C)O)C12 (stereo unspecified) [Echimidine N-oxide],9.37 min
7,CC12CCC3C(=CCc4cc(O)ccc43)C1CCC2=O (stereo unspecified) [Equilin],13.8 min
8,CCCCCCCCC=CCCCCCCCCCCCC(N)=O [Erucamide],19.6 min
9,O=P(O)(O)CCCl [Ethephon],2.01 min
10,CC1(C)C(=O)Oc2ccc(OS(C)(=O)=O)cc21 [Ethofumesate-2-keto],12 min
11,CCCSP(=O)(OCC)SCCC [Ethoprophos],15 min
12,OC(c1ccc(Cl)cc1)(c1cncnc1)c1ccccc1Cl (stereo unspecified) [Fenarimol],14.9 min
13,CC(C)(C)c1ccc(CCOc2ncnc3ccccc23)cc1 [Fenazaquin],17.8 min
14,CC(Cc1ccc(C(C)(C)C)cc1)CN1CCCCC1 (stereo unspecified) [Fenpropidin],13.8 min
15,COc1cc(OC)nc(NC(=O)NS(=O)(=O)c2ncccc2C(F)(F)F)n1 [Flazasulfuron],13.4 min
16,Cc1cc(C(F)(C(F)(F)F)C(F)(F)F)ccc1NC(=O)c1cccc(I)c1C(=O)NC(C)(C)CS(C)(=O)=O [Flubendiamide],15.4 min
17,O=C(O)c1ccccc1Nc1cccc(C(F)(F)F)c1 [Flufenamic acid],16.2 min
18,CC(=O)OCC(=O)C12OC(C)(C)OC1CC1C3CC(F)C4=CC(=O)C=CC4(C)C3(F)C(O)CC12C (stereo unspecified) [Fluocinonide],14.6 min
19,O=C(NCc1ncc(C(F)(F)F)cc1Cl)c1c(Cl)cccc1Cl [Fluopicolide],14.4 min
20,CNCCC(Oc1ccc(C(F)(F)F)cc1)c1ccccc1 (stereo unspecified) [Fluoxetine],13.2 min
21,O=C1C(Cl)C(CCl)CN1c1cccc(C(F)(F)F)c1 (stereo unspecified) [Flurochloridone],14.6 min
22,COc1ccc(-c2coc3cc(O)ccc3c2=O)cc1 [Formononetin],13.2 min
23,O=C(O)CC1(C(=O)O)CCCCC1 [Gabapentin Related Compound E],9.9 min

row,SMILES,LC retention time
1,C=CC12CN(C)C3C4COC(CC41)C1(C(=O)Nc4ccccc41)C32 (stereo unspecified) [Gelsemine],7.38 min
2,CCCCCC(=O)OC1(C(C)=O)CCC2C3CCC4=CC(=O)CCC4C3CCC21C (stereo unspecified) [Gestonorone capronate],16.7 min
3,CCCCCCCCCCCCCCCCCC(=O)OCC(O)CO (stereo unspecified) [Glyceryl monostearate],19.2 min
4,CCCCCCCCCCCCCCCC(=O)OCC(O)CO (stereo unspecified) [Glyceryl-1-monopalmitate],18.6 min
5,C=CC1CNC(=S)O1 (stereo unspecified) [Goitrin],5 min
6,COP(=O)(OC)OC1=C(Cl)C2C=CCC12 (stereo unspecified) [Heptenophos],13.3 min
7,CCCCC(O)(Cn1cncn1)c1ccc(Cl)cc1Cl (stereo unspecified) [Hexaconazole],15.9 min
8,O=C(O)CNC(=O)c1ccccc1 [Hippuric_acid],7.2 min
9,NC(Cc1cnc[nH]1)C(=O)N1CCCC1C(=O)O (stereo unspecified) [His-Pro],2.6 min
10,CN(C)CCc1ccc(O)cc1 [Hordenine],3.04 min
11,CC(=O)OCC(=O)C1(O)CCC2C3CCC4=CC(=O)CCC4(C)C3C(O)CC21C (stereo unspecified) [Hydrocortisonacetate],13.4 min
12,CC(=O)C1(C)CC2=C(CCCC2(C)C)CC1C (stereo unspecified) [ISO E Super],17.7 min
13,O=NNC1=NCCN1Cc1ccc(Cl)nc1 [Imidacloprid-nitrosoimine],7.84 min
14,O=[N+]([O-])Nc1nccn1Cc1ccc(Cl)nc1 [Imidacloprid-olefin],7.92 min
15,C1=Cc2ccccc2Nc2ccccc21 [Iminostilbene],14.5 min
16,c1ccc2[nH]ncc2c1 [Indazole],4.3 min
17,O=C(O)c1cc2ccccc2[nH]1 [Indole-2-carboxylic acid/Indole-3-carboxylic acid],7.8 min
18,COP(N)(=S)Oc1ccccc1C(=O)OC(C)C (stereo unspecified) [Isocarbophos],13.2 min
19,CCOP(=S)(NC(C)C)Oc1ccccc1C(=O)OC(C)C (stereo unspecified) [Isofenphos (-ethyl)],16 min
20,COP(=S)(NC(C)C)Oc1ccccc1C(=O)OC(C)C (stereo unspecified) [Isofenphos-methyl],15.5 min
21,CC1(C)CC(N)CC(C)(CN)C1 (stereo unspecified) [Isophorone diamine],2.02 min
22,O=C(O)c1cccc(C(=O)O)c1 [Isophthalic acid],8.71 min
